What all share (format): cell-based
One test has as its system S. aureus ATCC 6538. The test is described as follows: MIC by broth microdilution, S. aureus. As to conditions: Staphylococcus aureus, read-out: S. aureus ATCC 6538 MIC. The procedure, abridged: (§1)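 Two-fold serial dilutions were tested in broth at ~5×10^5 cfu/mL: S. aureus in TSB or CAMHB, E. coli in LB or CAMHB, with 50 μM zinc sulphate added as required. After 24 h at 37° C, 200 rpm, MIC was the lowest concentration showing no growth by OD600.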
On the technique in general: In broth dilution the organism is exposed to a series of concentrations in liquid medium.

Another test has as its system E. coli ATCC 10596. The test is described as follows: MIC by broth microdilution, E. coli. As to conditions: Escherichia coli, read-out: E. coli ATCC 10536 MIC. The procedure, abridged: as §1
For the next test, the system named is S. uberis ATCC 19436. The test is described as follows: MIC by broth microdilution, S. uberis. Particulars: Streptococcus uberis, read-out: S. uberis ATCC 19436 MIC. The procedure, abridged:
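Streptococcus uberis ATCC 19436 was tested in Todd Hewitt Broth by broth microdilution in 96-well flat bottom plates, in biological triplicate. Overnight cells were diluted to OD600 of approximately 0.025, giving about 5×10^5 cfu/mL in the wells. Compounds were serially diluted two-fold to 200 μl, incubated 24 h at 37° C. and 200 rpm, and the MIC was taken from OD600.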

Setting [1] is: ATCC 10536 / ATCC 10596, No Zinc.
Where [2] appears, read: ATCC 10536 / ATCC 10596, Zinc (50 μM).

In brackets after ≈: the same amount, converted by molar mass. Where two headings read alike, the source gives them in different places. Bounds are passed on as bounds.

On to `O=S(=O)(Nc1cccc2ccc(CN3CCSCC3)nc12)c1ccc(C(F)(F)F)cc1` [ZDR088, N-(2-(Thiomorpholinomethyl)quinolin-8-yl)-4-(trifluoromethyl)benzenesulfonamide], for which the MIC – broadly, the smallest concentration in the dilution series that meets the test's criterion for growth inhibition – in the test on S. aureus ATCC 6538 (ATCC6538, No Zinc) is greater than 256 µg/mL; with S. aureus ATCC 6538 (ATCC6538, Zinc (50 μM)), greater than 256 µg/mL; in the test on E. coli ATCC 10596 (setting [1]) it was greater than 256 µg/mL; in the test with E. coli ATCC 10596 (setting [2]), greater than 256 µg/mL; in the test on S. uberis ATCC 19436 (ATCC19436, No Zinc) it was greater than 256 µg/mL; in the test on S. uberis ATCC 19436 (ATCC19436, Zinc (50 μM)) it was 0.0625 µg/mL (≈ 0.134 µM).

Turning to `CN(C)Cc1ccc2cccc(NS(=O)(=O)c3cccc(S(N)(=O)=O)c3)c2n1` [ZDR155, N-(2-((Dimethylamino)methyl)quinolin-8-yl)benzene-1,3-disulfonamide], the minimum inhibitory concentration (MIC) in the test with S. aureus ATCC 6538 (ATCC6538, No Zinc) is greater than 256 µg/mL; in the test with S. aureus ATCC 6538 (ATCC6538, Zinc (50 μM)), greater than 256 µg/mL; in the test on E. coli ATCC 10596 (setting [1]), greater than 256 µg/mL; with E. coli ATCC 10596 (setting [2]) it was greater than 256 µg/mL; in the test with S. uberis ATCC 19436 (ATCC19436, No Zinc), greater than 256 µg/mL; with S. uberis ATCC 19436 (ATCC19436, Zinc (50 μM)), greater than 256 µg/mL.

On to `Cc1cc(CS(=O)(=O)Nc2cccc3ccc(CN(C)C)nc23)no1` [ZDR501, N-(2-((Dimethylamino)methyl)quinolin-8-yl)-1-(5-methylisoxazol-3-yl)methanesulfonamide], for which the MIC in the test with S. aureus ATCC 6538 (ATCC6538, No Zinc) is 256 µg/mL (≈ 710 µM); in the test on S. aureus ATCC 6538 (ATCC6538, Zinc (50 μM)) it was greater than 256 µg/mL; in the test on E. coli ATCC 10596 (setting [1]), greater than 256 µg/mL; with E. coli ATCC 10596 (setting [2]) it was greater than 256 µg/mL; in the test on S. uberis ATCC 19436 (ATCC19436, No Zinc), greater than 256 µg/mL; with S. uberis ATCC 19436 (ATCC19436, Zinc (50 μM)), 0.25 µg/mL (≈ 0.694 µM).

On to `CCCN(CCC)Cc1ccc2cccc(NS(=O)(=O)c3ccc(C(F)(F)F)cc3)c2n1` [ZDR409, N-(2-((Dipropylamino)methyl)quinolin-8-yl)-4-(trifluoromethyl)benzenesulfonamide], for which the minimum inhibitory concentration (MIC) is 64 µg/mL (≈ 137 µM) in the test on S. aureus ATCC 6538 (ATCC6538, No Zinc); 256 µg/mL (≈ 550 µM) in the test on S. aureus ATCC 6538 (ATCC6538, Zinc (50 μM)); greater than 256 µg/mL in the test on E. coli ATCC 10596 (setting [1]); greater than 256 µg/mL in the test with E. coli ATCC 10596 (setting [2]); 256 µg/mL (≈ 550 µM) in the test with S. uberis ATCC 19436 (ATCC19436, No Zinc); 0.125 µg/mL (≈ 0.269 µM) in the test on S. uberis ATCC 19436 (ATCC19436, Zinc (50 μM)).

`CN(C)Cc1ccc2cccc(NS(=O)(=O)C3CCOCC3)c2n1` [ZDR502, N-(2-((Dimethylamino)methyl)quinolin-8-yl)tetrahydro-2H-pyran-4-sulfonamide]: the minimal inhibitory concentration (MIC) with S. aureus ATCC 6538 (ATCC6538, No Zinc) was greater than 256 µg/mL; with S. aureus ATCC 6538 (ATCC6538, Zinc (50 μM)), greater than 256 µg/mL; in the test with E. coli ATCC 10596 (setting [1]) it was greater than 256 µg/mL; in the test with E. coli ATCC 10596 (setting [2]), greater than 256 µg/mL; in the test with S. uberis ATCC 19436 (ATCC19436, No Zinc) it was greater than 256 µg/mL; in the test with S. uberis ATCC 19436 (ATCC19436, Zinc (50 μM)), 0.25 µg/mL (≈ 0.715 µM).

Turning to `CN(C)Cc1ccc2cccc(NS(=O)(=O)c3ccc(C=O)cc3)c2n1` [ZDR324, N-(2-((Dimethylamino)methyl)quinolin-8-yl)-4-formylbenzenesulfonamide], the MIC in the test on S. aureus ATCC 6538 (ATCC6538, No Zinc) is 256 µg/mL (≈ 693 µM); in the test on S. aureus ATCC 6538 (ATCC6538, Zinc (50 μM)), 256 µg/mL (≈ 693 µM); in the test on E. coli ATCC 10596 (setting [1]), greater than 256 µg/mL; in the test with E. coli ATCC 10596 (setting [2]), greater than 256 µg/mL; in the test with S. uberis ATCC 19436 (ATCC19436, No Zinc) it was 256 µg/mL (≈ 693 µM); in the test on S. uberis ATCC 19436 (ATCC19436, Zinc (50 μM)), 1 µg/mL (≈ 2.71 µM).

Take `CC(C)S(=O)(=O)Nc1cccc2ccc(CN(C)C)nc12` [ZDR318, N-(2-((Dimethylamino)methyl)quinolin-8-yl)propane-2-sulfonamide]: the minimal inhibitory concentration (MIC) with S. aureus ATCC 6538 (ATCC6538, No Zinc) is greater than 256 µg/mL; in the test on S. aureus ATCC 6538 (ATCC6538, Zinc (50 μM)), greater than 256 µg/mL; in the test on E. coli ATCC 10596 (setting [1]), greater than 256 µg/mL; with E. coli ATCC 10596 (setting [2]) it was greater than 256 µg/mL; in the test on S. uberis ATCC 19436 (ATCC19436, No Zinc) it was 256 µg/mL (≈ 833 µM); in the test on S. uberis ATCC 19436 (ATCC19436, Zinc (50 μM)), 32 µg/mL (≈ 104 µM).

In the case of `O=S(=O)(Nc1cccc2ccc(CNC3CC3)nc12)c1ccc(C(F)(F)F)cc1` [ZDR086, N-(2-((Cyclopropylamino)methyl)quinolin-8-yl)-4-(trifluoromethyl)benzenesulfonamide], the MIC is 64 µg/mL (≈ 152 µM) with S. aureus ATCC 6538 (ATCC6538, No Zinc); greater than 256 µg/mL with S. aureus ATCC 6538 (ATCC6538, Zinc (50 μM)); 128 µg/mL (≈ 304 µM) in the test on E. coli ATCC 10596 (setting [1]); 256 µg/mL (≈ 607 µM) with E. coli ATCC 10596 (setting [2]); 64 µg/mL (≈ 152 µM) in the test on S. uberis ATCC 19436 (ATCC19436, No Zinc); 0.25 µg/mL (≈ 0.593 µM) in the test with S. uberis ATCC 19436 (ATCC19436, Zinc (50 μM)).

Consider `CCNCc1ccc2cccc(NS(=O)(=O)c3ccc(C(F)(F)F)cc3)c2n1` [ZDR025, N-(2-((Ethylamino)methyl)quinolin-8-yl)-4-(trifluoromethyl)-benzenesulfonamide], for which the MIC in the test on S. aureus ATCC 6538 (ATCC6538, No Zinc) was 32 µg/mL (≈ 78.2 µM); with S. aureus ATCC 6538 (ATCC6538, Zinc (50 μM)) it was greater than 256 µg/mL; in the test with E. coli ATCC 10596 (setting [1]), 256 µg/mL (≈ 625 µM); in the test on E. coli ATCC 10596 (setting [2]), no less than 256 µg/mL; in the test with S. uberis ATCC 19436 (ATCC19436, No Zinc), 64 µg/mL (≈ 156 µM); with S. uberis ATCC 19436 (ATCC19436, Zinc (50 μM)), 0.125 µg/mL (≈ 0.305 µM).

The values are drawn from US11691949B2, “Quinoline sulfonamide compounds and their use as antibacterial agents” (OTAGO INNOVATION LIMITED, priority 2017, dated 2023).
